Calls of active or inactive are those of the source. The calls are words filed in the database; no cut-off is given here.
What was measured:
[1] = tested on: A549; experiment: Cytotoxicity against human A549 assessed as reduction in cell viability measured after 72 hrs by MTT assay; format: functional, cell-based; details: A549, 72 h
[2] = tested on: HCT-116; experiment: Cytotoxicity against human HCT-116 assessed as reduction in cell viability measured after 72 hrs by MTT assay; format: functional, cell-based; details: HCT-116, 72 h
[3] = tested on: LoVo; experiment: Cytotoxicity against human LoVo assessed as reduction in cell viability measured after 72 hrs by MTT assay; format: functional, cell-based
[4] = tested on: COLO 205; experiment: Cytotoxicity against human COLO 205 assessed as reduction in cell viability measured after 72 hrs by MTT assay; format: functional, cell-based; details: COLO 205, 72 h
[5] = tested on: HeLa; experiment: Cytotoxicity against human Hela assessed as reduction in cell viability measured after 72 hrs by MTT assay; format: functional, cell-based
[6] = tested on: NCI-H1975; experiment: Cytotoxicity against human NCI-H1975 assessed as reduction in cell viability measured after 72 hrs by MTT assay; format: functional, cell-based; details: NCI-H1975, 72 h
[7] = Toxicity in nude BALB/c mouse xenografted with human HCT-116 cells assessed as reduction in body weight at 20 mg/kg, po dosed once the every 2 day for upto 24 days; format: organism-based; details: in vivo, time <=24 day
[8] = Toxicity in NPG mouse xenografted with human Raji cells assessed as body weight loss at 5 mg/kg, ip measured on the 1 day; format: organism-based; details: in vivo, 24 h
[9] = Toxicity in NPG mouse xenografted with human Raji cells assessed as body weight loss at 5 mg/kg, ip measured after 5 day; format: organism-based; details: in vivo, 120 h
[10] = tested on: Raji; experiment: Antitumor activity against NPG mouse xenografted with human Raji cell assessed as tumor growth inhibition at 5 mg/kg, ip measured after 5 day; format: functional; details: 120 h, read-out: TGI
[11] = tested on: Raji; experiment: Cytotoxicity against human Raji assessed as reduction in cell viability measured after 72 hrs by MTT assay; format: functional, cell-based
[12] = tested on: HCT-116; experiment: Inhibition of colony formation in human HCT-116 cells at 1 nM incubated for 12 days by crystal violet dye based assay; format: functional, cell-based; details: time 12.0 day
[13] = tested on: HCT-116; experiment: Induction of apoptosis in human HCT-116 cells assessed as late apoptotic cells level at 0.001 uM incubated for 24 hrs by Annexin V-FITC/PI staining based flow cytometry (reference value: 0.07%); format: functional
[14] = tested on: HCT-116; experiment: Induction of apoptosis in human HCT-116 cells assessed as early apoptotic cells level at 0.001 uM incubated for 24 hrs by Annexin V-FITC/PI staining based flow cytometry (reference value: 0.17%); format: functional
[15] = tested on: HCT-116; experiment: Induction of apoptosis in human HCT-116 cells assessed as late apoptotic cells level at 0.03 uM incubated for 24 hrs by Annexin V-FITC/PI staining based flow cytometry (reference value: 0.07%); format: functional
[16] = tested on: HCT-116; experiment: Induction of apoptosis in human HCT-116 cells assessed as early apoptotic cells level at 0.03 uM incubated for 24 hrs by Annexin V-FITC/PI staining based flow cytometry (reference value: 0.17%); format: functional
[17] = tested on: HCT-116; experiment: Induction of apoptosis in human HCT-116 cells assessed as late apoptotic cells level at 1 uM incubated for 24 hrs by Annexin V-FITC/PI staining based flow cytometry (reference value: 0.07%); format: functional
[18] = tested on: HCT-116; experiment: Induction of apoptosis in human HCT-116 cells assessed as early apoptotic cells level at 1 uM incubated for 24 hrs by Annexin V-FITC/PI staining based flow cytometry (reference value: 0.17%); format: functional
[19] = Solubility of compound in phosphate buffer at pH 4.5 incubated for 24 hrs under shaking condition by HPLC analysis; format: physicochemical
[20] = Solubility of compound in phosphate buffer at pH 7.4 incubated for 24 hrs under shaking condition by HPLC analysis; format: physicochemical
[21] = Solubility of compound in water incubated for 24 hrs under shaking condition by HPLC analysis; format: physicochemical

SMILES | IC50 [1] | IC50 [2] | IC50 [3] | IC50 [4] | IC50 [5] | IC50 [6] | further results
CC[C@@]1(O)C(=O)OCc2c1cc1n(c2=O)Cc2cc3cc(OCC(=O)N4CCCC4)ccc3nc2-1 | 80 nM | 81 nM | 880 nM | 2830 nM | 1370 nM | 2810 nM | –
CC[C@@]1(O)C(=O)OCc2c1cc1n(c2=O)Cc2cc3cc(O)ccc3nc2-1 [HYDROXYCAMPTOTHECIN] | 80 nM | 21 nM | 330 nM | – | – | – | –
CC[C@@]1(O)C(=O)OCc2c1cc1n(c2=O)Cc2cc3cc(OCC(=O)N(C)CCN(C)C)ccc3nc2-1 | > 10000 nM | > 10000 nM | > 10000 nM | > 10000 nM | > 10000 nM | > 10000 nM | –
CCN(CC)CCNC(=O)COc1ccc2nc3c(cc2c1)Cn1c-3cc2c(c1=O)COC(=O)[C@]2(O)CC | > 10000 nM | > 10000 nM | > 10000 nM | > 10000 nM | > 10000 nM | > 10000 nM | –
CC[C@@]1(O)C(=O)OCc2c1cc1n(c2=O)Cc2cc3cc(OCC(=O)NCCN(C)C)ccc3nc2-1 | > 10000 nM | > 10000 nM | > 10000 nM | > 10000 nM | > 10000 nM | > 10000 nM | –
CC[C@@]1(O)C(=O)OCc2c1cc1n(c2=O)Cc2cc3cc(OCC(=O)N4CCN(C)CC4)ccc3nc2-1 | > 10000 nM | > 10000 nM | > 10000 nM | > 10000 nM | 2570 nM | > 10000 nM | –
CC[C@@]1(O)C(=O)OCc2c1cc1n(c2=O)Cc2cc3cc(OCC(=O)N4CCC(N(C)C)CC4)ccc3nc2-1 | > 10000 nM | > 10000 nM | > 10000 nM | > 10000 nM | > 10000 nM | > 10000 nM | –
CCc1c2c(nc3ccc(OC(=O)N4CCC(N5CCCCC5)CC4)cc13)-c1cc3c(c(=O)n1C2)COC(=O)[C@]3(O)CC.Cl | – | – | – | – | – | – | Activity [7]: Toxic; Activity [8]: 24.2 g; Activity [9]: 23.5 g; inhibition in vivo at 5 mg/kg [10]: 7.1%
CCN(CC)C(=O)COc1ccc2nc3c(cc2c1)Cn1c-3cc2c(c1=O)COC(=O)[C@]2(O)CC | 261 nM | 101 nM | 933 nM | 1520 nM | 1010 nM | 1960 nM | –
CC[C@@]1(O)C(=O)OCc2c1cc1n(c2=O)Cc2cc3cc(OCC(=O)N4CCCCC4)ccc3nc2-1 | 55 nM | 17 nM | 272 nM | 540 nM | 380 nM | 1380 nM | –
CCc1c2c(nc3ccc(OCC(=O)N4CCCC4)cc13)-c1cc3c(c(=O)n1C2)COC(=O)[C@]3(O)CC | 37 nM | 12 nM | 181 nM | 250 nM | 350 nM | 630 nM | IC50 [11]: 6 nM
CCc1c2c(nc3ccc(O)cc13)-c1cc3c(c(=O)n1C2)COC(=O)[C@]3(O)CC [7-ETHYL-10-HYDROXYCAMPTOTHECIN] | 18 nM | 10 nM | 301 nM | 220 nM | 145 nM | 810 nM | IC50 [11]: 5 nM; inhibition [12]: Active; Activity [13]: 2.81%; Activity [14]: 2.91%; Activity [15]: 8.29%; Activity [16]: 3.11%; Activity [17]: 7.12%; Activity [18]: 24.42%; solubility thermodynamic at 24 h [19]: < 0.25 µg/mL; solubility thermodynamic at 24 h [20]: < 0.25 µg/mL; solubility thermodynamic at 24 h [21]: < 0.25 µg/mL
